{"source": "patent US12569513B1", "about": "“Stable, highly pure L-cysteine compositions for injection and methods of use” (priority 2019, dated 2026)", "origin": "cited, not measured here"}
{"smiles": "N[C@@H](CS)C(=O)O", "note": "[L-Cysteine, 2-Amino-3-sulfhydrylpropanoic acid]", "values": [{"measurement": "solubility", "value": 50, "unit": "mg/mL"}]}
